The source of these data is PubChem BioAssay (NCI).

Some test systems named below: 786-0 renal; A498 renal; HCC-2998 colon; HCT-116 colon; NCI-H226 lung; OVCAR-8 ovarian; SF-295 CNS; SN12C renal; SNB-19 CNS; UACC-257 melanoma.
Common to all, as to experiment: NCI tumour cell line growth inhibition, 48 h

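Exposure lasted 48 hours, with cells grown in 96-well plates and compounds tested at five concentrations. Definition used: TGI = concentration required for complete inhibition of growth.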

Regarding `Fc1ccccc1N=c1oc2ccc(Br)cc2cc1-c1nc2ccccc2[nH]1`, the TGI is 8.5 µM with 786-0 renal; 9.69 µM in the assay with A498 renal; > 35.2 µM with HCC-2998 colon; > 31.8 µM in the assay with HCT-116 colon; 17.6 µM in the assay with NCI-H226 lung; > 36.5 µM in the assay with OVCAR-8 ovarian. Moreover, the TGI was 23.2 µM with SF-295 CNS, > 41.1 µM with SN12C renal, 21.9 µM with SNB-19 CNS and > 47.5 µM with UACC-257 melanoma.

In the case of `CN1CCN(c2nc3c(c(=O)n(C)c(=O)n3C)n2C)CC1`, the TGI in the assay with 786-0 renal, in the assay with A498 renal, in the assay with HCC-2998 colon, with HCT-116 colon, in the assay on NCI-H226 lung and in the assay with OVCAR-8 ovarian was > 100 µM throughout. In addition, the TGI in the assay on SF-295 CNS, with SN12C renal, with SNB-19 CNS and in the assay on UACC-257 melanoma was > 100 µM each time.

In the case of `COC(=O)C1(C(=O)OC)CC2=C(S(=O)(=O)c3ccccc3)C[C@@H](C#N)[C@H]2C1`, the TGI in the assay with 786-0 renal is > 100 µM; in the assay with A498 renal, > 100 µM; in the assay with HCC-2998 colon it was 31.2 µM; with HCT-116 colon it was > 100 µM; in the assay on NCI-H226 lung it was > 100 µM; with OVCAR-8 ovarian, > 100 µM. The TGI with SF-295 CNS, with SN12C renal, in the assay with SNB-19 CNS and in the assay with UACC-257 melanoma was > 100 µM in each case.

For the molecule `Clc1ccc(CCn2ccc3ccccc32)c(Cl)c1`, the TGI in the assay on 786-0 renal, in the assay with A498 renal, with HCC-2998 colon, in the assay with HCT-116 colon, in the assay on NCI-H226 lung and in the assay on OVCAR-8 ovarian was > 100 µM in each case. The TGI in the assay on SF-295 CNS, in the assay on SN12C renal, in the assay on SNB-19 CNS and with UACC-257 melanoma was > 100 µM in each case.

With `COc1ccc(/C=N/NC(=O)c2ccccc2Nc2ccccc2C(=O)N/N=C/c2ccc(OC)c(OC)c2)cc1OC`, the TGI with 786-0 renal, in the assay on A498 renal, in the assay with HCC-2998 colon, in the assay on HCT-116 colon, in the assay on NCI-H226 lung and in the assay with OVCAR-8 ovarian was > 100 µM throughout. Further, the TGI in the assay with SF-295 CNS, in the assay on SN12C renal, with SNB-19 CNS and in the assay with UACC-257 melanoma was > 100 µM throughout.

With `Cc1ccc(-c2cn3c(nc4ccccc43)c(C)n2)cc1`, the TGI in the assay on 786-0 renal was > 75.5 µM; with A498 renal it was > 77.5 µM; with HCC-2998 colon, > 100 µM; in the assay on HCT-116 colon, > 100 µM; in the assay with NCI-H226 lung, > 100 µM; in the assay with OVCAR-8 ovarian, > 100 µM. Moreover, the TGI in the assay on SF-295 CNS, in the assay on SN12C renal, with SNB-19 CNS and with UACC-257 melanoma was > 100 µM in each case.

`CC(C)(C)C(=O)C(C#N)C(=O)C(C)(C)C`: the TGI in the assay with 786-0 renal, in the assay with A498 renal, in the assay on HCC-2998 colon, in the assay on HCT-116 colon, with NCI-H226 lung and in the assay on OVCAR-8 ovarian was > 100 µM throughout. Also, the TGI in the assay on SF-295 CNS, in the assay on SN12C renal, in the assay on SNB-19 CNS and in the assay with UACC-257 melanoma was > 100 µM throughout.

With `CN(C)CCCN1c2ccc3ccccc3c2Sc2cccc(Cl)c21`, the TGI is 8.84 µM with 786-0 renal; 25.8 µM with A498 renal; 2.96 µM in the assay on HCC-2998 colon; 14 µM in the assay with HCT-116 colon; 18.7 µM with NCI-H226 lung; 18 µM in the assay on OVCAR-8 ovarian. In addition, the TGI in the assay on SF-295 CNS was determined as 12.4 µM; in the assay with SN12C renal it was 20.3 µM; in the assay with SNB-19 CNS, 22.7 µM; with UACC-257 melanoma it was 3.1 µM.

Turning to `O=C1N[C@@H](c2c[nH]c3ccc(Br)cc23)C(=O)N[C@H]1c1c[nH]c2ccc(Br)cc12`, the TGI was 25.6 µM in the assay on 786-0 renal; 18.5 µM with A498 renal; 11.8 µM in the assay on HCC-2998 colon; 21.8 µM in the assay on HCT-116 colon; 26.9 µM in the assay with NCI-H226 lung; 26 µM in the assay with OVCAR-8 ovarian. In addition, the TGI in the assay with SF-295 CNS amounted to 25.2 µM; in the assay on SN12C renal it was 27.4 µM; with SNB-19 CNS, 49.2 µM; in the assay on UACC-257 melanoma it was 26.8 µM.

Take `O=S(=O)(CC#CCS(=O)(=O)c1ccccc1)c1ccccc1`: the TGI in the assay on 786-0 renal came to 2.24 µM; in the assay on A498 renal, 36.3 µM; in the assay with HCC-2998 colon, 35.8 µM; with HCT-116 colon it was 2.39 µM; with NCI-H226 lung, 34.7 µM; in the assay on OVCAR-8 ovarian, 5.16 µM. Besides, the TGI in the assay with SF-295 CNS stood at 43.6 µM; in the assay on SN12C renal, 12.4 µM; in the assay with SNB-19 CNS, 32.9 µM; in the assay with UACC-257 melanoma, 14.7 µM.

`COc1cc(C2c3cc4c(c(O)c3C(=O)C3CCC(=O)N32)OCO4)cc(OC)c1OC` (stereo not given): the TGI in the assay on 786-0 renal, with A498 renal, in the assay with HCC-2998 colon, in the assay on HCT-116 colon, in the assay on NCI-H226 lung and in the assay on OVCAR-8 ovarian was > 100 µM in each case. In addition, the TGI with SF-295 CNS, in the assay on SN12C renal, with SNB-19 CNS and with UACC-257 melanoma was > 100 µM in each case.

On to `O=C1CSC(c2ccc(Cl)cc2)N1c1ccc(-n2c(-c3ccccc3)nc3ccccc3c2=O)cc1` (stereo not given), for which the TGI with 786-0 renal, with A498 renal, in the assay with HCC-2998 colon, in the assay with HCT-116 colon, in the assay on NCI-H226 lung and in the assay on OVCAR-8 ovarian was > 100 µM throughout. For the same molecule, the TGI in the assay with SF-295 CNS, in the assay on SN12C renal, in the assay with SNB-19 CNS and with UACC-257 melanoma was > 100 µM throughout.

Consider `COc1cc2c(oc(=O)c3c4oc([Si](C)(C)C)cc4cc(OC)c23)c2cccc(O)c12`, for which the TGI with 786-0 renal, in the assay with A498 renal, in the assay on HCC-2998 colon, in the assay on HCT-116 colon, with NCI-H226 lung and in the assay on OVCAR-8 ovarian was > 100 µM in each case. In addition, the TGI with SF-295 CNS, in the assay with SN12C renal, in the assay with SNB-19 CNS and with UACC-257 melanoma was > 100 µM throughout.

Take `CCC(c1ccc(N(C)C)cc1)C1NC(=S)NC1=O` (stereo not given): the TGI in the assay on 786-0 renal, in the assay with A498 renal, in the assay with HCC-2998 colon, with HCT-116 colon, in the assay on NCI-H226 lung and with OVCAR-8 ovarian was > 100 µM throughout. The TGI in the assay with SF-295 CNS, with SN12C renal, in the assay on SNB-19 CNS and in the assay with UACC-257 melanoma was > 100 µM in each case.

With `COc1cc2c(cc1C)NC(=O)/C2=C/c1c(Cl)n(C)c2ccccc12`, the TGI in the assay with 786-0 renal was 30.7 µM; in the assay on A498 renal, 21.5 µM; in the assay on HCC-2998 colon, 20.1 µM; in the assay on HCT-116 colon, 21.9 µM; in the assay with NCI-H226 lung it was 27.2 µM; with OVCAR-8 ovarian it was 35.8 µM. Moreover, the TGI turned out to be 29.4 µM with SF-295 CNS, 33.3 µM in the assay with SN12C renal, 38.6 µM in the assay on SNB-19 CNS and 34.7 µM with UACC-257 melanoma.

For the molecule `Cc1cn2cc(-c3ccncc3)nc2s1`, the TGI in the assay with 786-0 renal, in the assay with A498 renal, in the assay with HCC-2998 colon, in the assay on HCT-116 colon, in the assay with NCI-H226 lung and in the assay on OVCAR-8 ovarian was > 100 µM throughout. Besides, the TGI with SF-295 CNS, in the assay with SN12C renal, in the assay on SNB-19 CNS and with UACC-257 melanoma was > 100 µM each time.

Consider `O=C(O)CCCCCNC(=O)CCC(CN(CC(=O)OCc1ccccc1)CC(=O)OCc1ccccc1)N(CC(=O)OCc1ccccc1)CC(=O)OCc1ccccc1` (stereo not given), for which the TGI with 786-0 renal came to 34.1 µM; in the assay on A498 renal, 32.2 µM; with HCC-2998 colon, 30.5 µM; in the assay on HCT-116 colon, 31.2 µM; in the assay on NCI-H226 lung it was 54.2 µM; with OVCAR-8 ovarian, 30.1 µM. Moreover, the TGI amounted to 32.2 µM in the assay on SF-295 CNS, 36.2 µM in the assay on SN12C renal, 32.9 µM in the assay with SNB-19 CNS and 33.1 µM with UACC-257 melanoma.

For the molecule `COC(=O)C(I(OS(=O)(=O)c1ccc(C)cc1)c1ccccc1)=P(c1ccccc1)(c1ccccc1)c1ccccc1`, the TGI in the assay with 786-0 renal turned out to be 28.9 µM; in the assay with A498 renal it was 44.7 µM; with HCC-2998 colon, 34.8 µM; in the assay on HCT-116 colon, 30.2 µM; in the assay on NCI-H226 lung, 23.2 µM; in the assay on OVCAR-8 ovarian it was 48.1 µM. For the same molecule, the TGI in the assay with SF-295 CNS is 87 µM; with SN12C renal it was > 100 µM; in the assay on SNB-19 CNS, > 100 µM; in the assay on UACC-257 melanoma, 37.1 µM.

In the case of `COc1cccc(C(=O)C(O)c2cccc(OC)c2OC)c1OC` (stereo not given), the TGI in the assay with 786-0 renal, with A498 renal, with HCC-2998 colon, in the assay on HCT-116 colon, in the assay with NCI-H226 lung and in the assay with OVCAR-8 ovarian was > 100 µM each time. Moreover, the TGI with SF-295 CNS, in the assay on SN12C renal, in the assay on SNB-19 CNS and with UACC-257 melanoma was > 100 µM each time.

Regarding `CC(C)(C)OC(=O)N1CC(COS(C)(=O)=O)c2ccc(O)cc21` (stereo not given), the TGI amounted to 11 µM with 786-0 renal; 4.38 µM in the assay on A498 renal; 0.991 µM in the assay on HCC-2998 colon; 10.3 µM in the assay with HCT-116 colon; 4.67 µM with NCI-H226 lung; 4.51 µM in the assay on OVCAR-8 ovarian. The TGI in the assay on SF-295 CNS came to 10.8 µM; in the assay with SN12C renal, 6.77 µM; in the assay with SNB-19 CNS, 8.95 µM; in the assay on UACC-257 melanoma, 5.54 µM.

Turning to `Cc1ccc(-c2c(C#N)c(O)n(NS(=O)(=O)c3ccccc3)c(=O)c2C#N)cc1`, the TGI with 786-0 renal, in the assay on A498 renal, in the assay with HCC-2998 colon, with HCT-116 colon, with NCI-H226 lung and in the assay on OVCAR-8 ovarian was > 100 µM each time. Moreover, the TGI with SF-295 CNS, in the assay with SN12C renal, in the assay with SNB-19 CNS and in the assay on UACC-257 melanoma was > 100 µM each time.

In the case of `CN(C)/C=C/c1ccnc2c1C(=O)c1ccccc1C2=O`, the TGI is 73.6 µM in the assay with 786-0 renal; > 85.6 µM in the assay with A498 renal; 22.6 µM with HCC-2998 colon; 20.9 µM in the assay with HCT-116 colon; > 52.7 µM in the assay on NCI-H226 lung; 59.1 µM with OVCAR-8 ovarian. In addition, the TGI is 14.3 µM with SF-295 CNS, 19.8 µM with SN12C renal, 25.6 µM with SNB-19 CNS and 6.19 µM in the assay with UACC-257 melanoma.

Turning to `N#Cc1c(C#N)c(-c2ccco2)n(/N=C/c2ccco2)c1N`, the TGI in the assay on 786-0 renal was > 100 µM; in the assay with A498 renal, > 100 µM; in the assay with HCC-2998 colon, > 100 µM; in the assay on HCT-116 colon, > 100 µM; in the assay on NCI-H226 lung it was 66.2 µM; in the assay with OVCAR-8 ovarian, 66.2 µM. Also, the TGI is > 100 µM in the assay on SF-295 CNS, > 100 µM in the assay with SN12C renal, 67.5 µM in the assay with SNB-19 CNS and > 100 µM in the assay on UACC-257 melanoma.
